Measurements as given in the SangsterLogP compilation.

Assay: method code SF-GLC, from DOI: 10.1007/bf00316585, PMID: 6732504

Row | SMILES | logP
1 | C=C(C)C#N | 0.68
2 | N#CCCCl | 0.18
3 | CCCC#N | 0.53
4 | CCCCCCCCC#N | 3.12
5 | CCCCCC#N | 1.66
6 | N#CCCl | 0.23
7 | CCCCCCCC#N | 2.75
8 | CC(C)CCC#N | 1.54
9 | C=CCC#N | 0.4
10 | N#CCCO | -0.94
11 | N#CCCCCl | 0.56
12 | CC(C)C#N | 0.46
